Measurements published in article PMC10995199, “Architecture and regulation of filamentous human cystathionine beta-synthase” (Nature Communications, 2024).

Key:
[1] = target: T1, CBS^Δ516–525 (Homo sapiens, UniProt P35520, DEL516-525); experiment: ITC; assay type: binding; conditions: 25 °C, 20 mM HEPES pH 7.4; two-site fit
T1 construct: full-length with regulatory domain loop 516-525 deleted, E. coli Rosetta (DE3); dimer; no C-terminal His-tag
T1 sequence (P35520 with tags, fused parts or gaps DEL516-525): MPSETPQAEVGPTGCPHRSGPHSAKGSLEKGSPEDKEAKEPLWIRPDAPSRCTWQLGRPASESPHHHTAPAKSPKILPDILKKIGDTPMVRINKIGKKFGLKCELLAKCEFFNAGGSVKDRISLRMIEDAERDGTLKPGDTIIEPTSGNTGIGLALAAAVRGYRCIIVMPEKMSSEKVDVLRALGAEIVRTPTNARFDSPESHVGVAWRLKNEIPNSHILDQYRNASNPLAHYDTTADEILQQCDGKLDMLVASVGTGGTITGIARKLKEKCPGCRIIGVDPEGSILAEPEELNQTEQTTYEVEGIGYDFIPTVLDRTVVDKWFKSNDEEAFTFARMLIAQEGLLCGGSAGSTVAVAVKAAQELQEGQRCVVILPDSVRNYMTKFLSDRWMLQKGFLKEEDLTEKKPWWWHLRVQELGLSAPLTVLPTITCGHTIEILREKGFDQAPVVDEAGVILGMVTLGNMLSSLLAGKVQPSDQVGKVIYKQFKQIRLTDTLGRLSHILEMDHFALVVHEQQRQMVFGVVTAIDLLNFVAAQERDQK

[2] = target: T1, CBS^Δ516–525; experiment: AzMC fluorescence H2S production; assay type: biochemical; conditions: read-out: Kact

C[S+](CC[C@H](N)C(=O)O)C[C@H]1O[C@@H](n2cnc3c(N)ncnc32)[C@H](O)[C@@H]1O (stereo partly drawn) [S-adenosyl-L-methionine]
Kd [1]: also presented two events, though this construct is dimeric
EC50 [2]: 26 to 36 µM
